Patent publication US20220339178A1, “COMPOSITIONS AND METHODS FOR COGNITIVE PROTECTION OF POLLINATORS AGAINST PESTICIDES” (priority 2019, published 2022)

What was measured:
[1] = test system: bumblebee Bombus impatiens; assay: Olfactory conditioning of PER in bumblebees: ad libitum rutin vs acute imidacloprid or fipronil; format: in vivo; conditions: for learning score relative to Control bees: score 0-10, ad libitum 1 μM rutin three days, 5 nM imidacloprid or 6 nM fipronil 20 μL 2 hours before training
Description: One colony of the bumblebee Bombus impatiens (Koppert Inc) was kept in laboratory conditions. Bees received pollen inside the nests and foraged to a 1M sugar-water feeder outside of the nest. Bees were collected while on the feeder and iced anesthetized to then be randomly assigned to one of two plastic containers where ad libitum self-administration of one of two solutions was allowed to 10 bees: i) 1 M sucrose water or ii) 1 μM Rutin (Sigma-Aldrich R5143) diluted in 1M sucrose water. On the night of the third day, the feeder was removed to starve the bees. On the fourth day, the bees were iced anesthetized and yolked restrained in plastic pipettes. Bees were maintained in the pipettes for the rest of the experiment (two days). One hour after harnessing, the bees were randomly assigned to one of three treatments: i) 20 μL of 1M sucrose water, ii) 20 μL of 1M sucrose water+5 nM imidacloprid, iii) 20 μL of 1M sucrose water+6 nM fipronil. Thus, overall bees belonged to one of six treatments:
Control: ad libitum sucrose water for three days and 20 μL of sucrose water before training
Rutin: ad libitum 1 μM Rutin for three days and 20 μL of sucrose water before training
Imid: ad libitum sucrose water for three days and 20 μL of 5 nM Imidacloprid in 1M sugar water 2 hours before training
Rutin+Imid: ad libitum 1 μM Rutin for three days and 20 μL of 5 nM Imidacloprid in 1M sugar water 2 hours before training
Fipronil: ad libitum sucrose water for three days and 20 μL of 5 nM fipronil in 1M sucrose water 2 hours before training
Rutin+Fipronil: ad libitum […] Rutin for three days and 20 μL of 6 nM fipronil in 1M sugar water 2 hours before training
All bees were blind-trained using olfactory conditioning of the proboscis extension response (PER). Briefly, bees were exposed to a presentation of 1-nonanol (Sigma-Aldrich) for 10 s. After 7 s of the onset of the odor presentation, the antenna was stimulated with 1.5 M sugar-water to elicit the PER. Following the PER, the bee was allowed to drink sugar-water for 3 s. Each paired presentation was considered a training trial and each individual received eleven training trials with an average intertrial interval of 10 minutes. After training, all bees were fed 20 μL of 1M sugar water and maintained in plastic boxes for 24 h until the retention test. […] Twenty-four hours after the last training trial the bees were presented with the conditioned odor for 10 s.
(§1) Learning for each individual was quantified as the number of conditioned PER responses across the trials. Thus, for each bee a learning score between zero and ten (0-10) was recorded.
(§2) Multiple comparisons were then run comparing learning score relative to Control bees using a non-parametric one or two-tailed Steel Method depending upon predictions. These comparisons informed us about the predicted impairment produced by the insecticides, the predicted innocuous effect of the flavonoid and the potential level of protection. Error due to multiple comparisons was controlled using the False Discovery Rate method (FDR-two stage sharpened method). In all cases corrected p-values (q-values) are presented.
(§3) Memory retention was quantified as a nominal variable (yes/no). Data were compared across treatments using a Chi-square test, followed by multiple comparisons of all treatments vs. Control. Error due to multiple comparisons was controlled using the FDR as indicated above. In all cases corrected p-values (q values) are presented.
Latency was quantified as a continuous variable between 0.5 s and 10 s. Data were compared across treatments using an ANOVA following a Log transformation to normalize the distribution (Shapiro-Wilk W Test after log transformation: p>0.05 for all treatments for the null hypothesis that data is from a normal distribution), followed by multiple comparisons between all treatments and the Control group. Error due to multiple comparisons was controlled using the FDR method as indicated above. […]

[2] = test system: Honey bee foragers (Apis mellifera scutellata); assay: Classical conditioning of PER in honey bees: rutin, kaempferol, p-coumaric acid vs fipronil; format: in vivo
Description: Honey bee foragers (Apis mellifera scutellata) were captured from established hives at the Apiary of the Universidad del Rosario (Bogota, Colombia) between 08:00 h and 10:00 h. Bees were ice-anesthetized and harnessed in plastic tubes and maintained under laboratory conditions for the duration of the experiment (five days). Food was provided twice a day in a volumen of 10 μL and varied in composition according to experimental treatments.
Bees were randomly allocated to one of the following treatments administered twice a day for three consecutive days (all concentrations are final):
Control: 1M sucrose water (10 μL)
Rut: 1 μM rutin (Sigma-Aldrich: R5143)-1M sugar water (10 μL)
Kaemp:131 μM kaempferol (Sigma-Aldrich:K0133)+1M sugar water (10 μL)
p-Cou A: 200 μM p-coumaric acid (Sigma-Aldrich:C9008) diluted in 1M sugar water (10 μL)
Mix: 1 μM rutin, 131 μM kaempferol and 200 μM p-Coumaric acid): Bees fed with composition diluted in 1M sugar water (10 μL) fed twice a day for three days
On the fourth day, bees were randomly assigned to one of two treatments three hours before training:
Fipronil: 10 μL of 228 nM Fipronil (Astuto Invesa) in 1M sucrose water
Sucrose solution: 10 μL 1M sucrose water
Thus, bees belong to one of ten treatments: Control, Kaemp, Rut, p-Cou A, Mix, Fipro, Kaemp+Fipro, Rut+Fipro, p-Cou A+Fipro, Mix+Fipro.
Bees were trained using classical conditioning of the proboscis extension response (PER). Briefly, bees received a soft current of clean air for 15 seconds to allow bees to accommodate. Then a soft current of 1-hexanol (Sigma-Aldrich: 471402) was injected for 10 seconds. Six seconds after injection of 1-hexanol, one of the antennae was stimulated with sugar water (1.5M), which leads to the reflexive extension of the proboscis, and the bee was allowed to drink for 4 seconds. Thus, the reward and the stimulus overlapped for four seconds. This sequence, recognized as a training trial, was repeated eleven times. Time was determined using a metronome (2 Hz). Memory retention was tested 24 hours after the eleven training trials. […] 12 bees were trained each session. Training was conducted by an experimenter blind to treatment.
as §1, §2, §3
Latency was quantified as a continuous variable between 0.5 s and 10 s. Data were compared across treatments using an ANOVA following a Log transformation to normalize the distribution (Shapiro-Wilk W Test after log transformation: p>0.05 for all treatments for the null hypothesis that data is from a normal distribution), followed by multiple comparisons between all treatments and the Control group (Dunnett's method). Error due to multiple comparisons was controlled using the FDR method as indicated above. In all cases corrected p-values (q-values) are presented.

Row | SMILES | odds of remembering for Control bees relative to insecticide bees ([1]; 24 h retention) [times] | proportion difference Control minus insecticide group for a PER response (Adjusted Wald test) ([1]; 24 h retention) | decision-making ratio (latency of response / learning score) relative to Control bees ([1]; bumblebees) | bees exhibiting a conditioned response after 24 h ([1]; bumblebees, 24 h retention test) [%] | learning score relative to Control bees ([1]; bumblebees) | latency of response relative to Control bees ([2]; Dunnett's method) | learning score relative to Control bees ([2]; honey bees, score 0-10, 1 μM rutin, 131 μM kaempferol, 200 μM p-coumaric acid or Mix twice a day for three days, 228 nM fipronil 10 μL three hours before training)
1 | O=[N+]([O-])NC1=NCCN1Cc1ccc(Cl)nc1 [Imidacloprid] | 12 | 0.51 | significant increase | 13 | significantly lower |  | 
2 | C[C@@H]1O[C@@H](OC[C@H]2O[C@@H](Oc3c(-c4ccc(O)c(O)c4)oc4cc(O)cc(O)c4c3=O)[C@H](O)[C@@H](O)[C@@H]2O)[C@H](O)[C@H](O)[C@H]1O [Rutin] |  |  |  |  | not significantly different | not significantly different from Control | not significantly different from Control bees
